The subject of series [1] is E. coli E423-17. Format: cell-based, Escherichia coli.
Another series concerns S. aureus USA300 LAC. The experiment in a line: microbe, parasite or virus in culture. The format is cell-based, Staphylococcus aureus. Summed up:
(§1)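 Broth microdilution with twofold peptide dilutions, using exponential-phase bacteria at about 10^5 CFU/mL in MHB, incubated overnight at 37 °C and read at OD600. MIC, reported as a range, is the peptide concentration with no growth. Some tests used diluted MHB/TSB/LB, adjusted pH, or added NaCl or human serum.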

Another series concerns A. baumannii B28-16. The format is cell-based, Acinetobacter baumannii. An outline of the steps:
(§2)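 Peptides twofold serially diluted against exponential-phase resistant clinical isolates at ~10^5 CFU/mL in MHB (also diluted MHB, TSB or LB in one protocol), CLSI-based broth microdilution. Incubated overnight at 37° C., OD 600 nm read; MIC taken as lowest concentration without growth, reported as ranges.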

The subject of series [2] is P. aeruginosa E411-17. The experiment in a line: microbe, parasite or virus in culture. Particulars: for MIC: read-out: Antimicrobial activity (MIC). The format is cell-based, Pseudomonas aeruginosa. Summed up:
as §1

Series [3] deals with P. aeruginosa E411-17. The experiment in a line: Killing kinetics. The format is cell-based, Pseudomonas aeruginosa. Particulars: 4×MIC. The protocol:
For bacterial killing kinetics study, MRSA USA300 and P. aeruginosa E411-17 was grown to the exponential phase (OD600˜0.3) in MHB. The culture was diluted to OD600 0.001 (˜10^5 CFU/mL). One milliliter of bacterial suspension was then mixed with the peptide, colistin or daptomycin at 4×MIC and incubated at 37° C. After 15, 30, 60, 90, and 120 minutes incubation, 50 μL was taken and serially diluted with 1×PBS. Then, 50 μL of the diluted suspension was plated on Mannitol Salt Agar (MRSA USA300) or Cetrimide Agar (P. aeruginosa E411-17) plates (NEOGEN, MI). The plates were incubated overnight at 37° C. for bacterial CFU count the next day.

The subject of series [4] is E. coli E423-17. The experiment in a line: Membrane permeabilization (propidium iodide). Format: cell-based, Escherichia coli. The conditions noted are these: Example 1, 1×MIC.
The test system of another series is human red blood cells. Kind of series: Hemolytic assay. The format is cell-based. The protocol: The hemolytic effects of peptides were evaluated using a method with minor modifications (Lakshmaiah Narayana, et al. (2021) ACS Infect. Dis., 7:1795-1808). Human red blood cells (hRBCs, UNMC Blood Bank) were washed (3×) with blood bank saline (isotonic solution 0.90% w/v, Fisher). Cells were diluted to 2% using the saline solution, and aliquots of 90 μL were added to a 96-well polystyrene microplate containing 10 μL of serially diluted peptide solutions. After incubation at 37° C. for 1 hour, plates were centrifuged at 500 g for 5 minutes. Aliquots of the supernatant were transferred to a 96-well microplate. The amount of hemoglobin released was measured at 545 nm by using a ChroMate™ microplate reader. […] HC50 is defined as the concentration of the peptide that caused 50% lysis.
The hemolytic effects of peptides were evaluated (Narayana, et al. (2020) Proc. Natl. Acad. Sci., 117(32):19446-9454). In brief, human red blood cells (UNMC Blood Bank) were washed (3×) and diluted to 2% using the saline solution. Aliquots of 90 μL were mixed with 10 μL of serially diluted peptide solutions. After incubation at 37° C. for 1 hour, plates were centrifuged at 500 g for 5 minutes and aliquots of the supernatant were transferred to a new 96-well microplate to measure the amount of hemoglobin released at 545 nm (relative to 1% Triton® X-100) using a ChroMate® Microplate Reader.

Series [5] deals with E. coli E423-17. The format is cell-based, Escherichia coli. The conditions noted are these: DMEM.
In the next series the test system is S. epidermidis 1457. The experiment in a line: microbe, parasite or virus in culture. Format: cell-based, Staphylococcus epidermidis. The conditions noted are these: read-out: Antimicrobial activity (MIC) S. epidermidis 1457. Summed up:
as §2

The next series relates to K. pneumoniae E406-17. The format is cell-based, Klebsiella pneumoniae. Summed up: as §2
A further series can be described thus: Cytotoxicity assay (MTS). Format: cell-based. The conditions noted are these: human, HepG2 cells, read-out: LC50. The protocol:
(§3) HepG2 cells were cultured in ATCC-formulated Eagle's Minimum Essential Medium with 10% FBS. A549 cells were grown in ATCC-formulated F-12K Medium containing 10% FBS.

The subject of the next series is P. aeruginosa E416-17. Format: cell-based, Pseudomonas aeruginosa. The protocol: Peptide activity against bacteria were tested using the CLSI standard procedure with minor modifications (Clinical and Laboratory Standards Institute (2018) Performance standards for antimicrobial susceptibility testing, 9th ed.; Mishra, et al. (2019) Proc. Natl. Acad. Sci., 116(27):13517-13522). In brief, a peptide concentration gradient with twofold dilution was made in the 96-well polystyrene microplate at 10 μL per well. Bacteria were grown to the exponential phase (i.e., optical density at 600 nm≈0.5), diluted to ˜10^5 CFU/mL in MHB, and partitioned into the 96-well microplate at 90 μL per well. The microplates were incubated at 37° C. overnight and read on a ChroMate® 4300 Microplate Reader at 600 nm (GMI, Ramsey, MN). The peptide concentration in the wells without bacterial growth is the minimal inhibitory concentration (MIC). As the convention, MIC values were represented as ranges.

Series [6] is described as follows: Cell viability assay (MTS). Format: cell-based, human. The conditions noted are these: human; 24 h; read-out: 50% lethal concentration (LC50). The protocol:
Human keratinocyte HaCaT cells were grown in DMEM/high glucose (Hyclone, UT) containing 10% fetal bovine serum (Mediatech, Corning, Manassas, VA). […] The mixture was incubated at 37° C. in 5% CO2 for 24 hours.
as §3

Where two headings read alike, the source gives them in different places. Where no end group is shown, it is not given here. Where only a bound is given, the exact number is not on record here.

As to Colistin [reference compound], in the series with E. coli E423-17 [1] (MHB, Table 8), the “Antimicrobial activity (MIC) E. coli E423-17” value was 1 to 2 µM. In addition, the MIC in the series with S. aureus USA300 LAC (Human serum 5%, read-out: Antimicrobial activity (MIC)) is listed as greater than 8 µM; with S. aureus USA300 LAC (Human serum 10%, read-out: Antimicrobial activity (MIC)) it was greater than 8 µM; in the series with S. aureus USA300 LAC (NaCl (150 mM), read-out: Antimicrobial activity (MIC)), greater than 8 µM; in the series on S. aureus USA300 LAC (pH 6.21, read-out: Antimicrobial activity (MIC)), greater than 8 µM; in the series with S. aureus USA300 LAC (pH 7.22, read-out: Antimicrobial activity (MIC)) it was greater than 8 µM; in the series with S. aureus USA300 LAC (pH 8.13, read-out: Antimicrobial activity (MIC)) it was greater than 8 µM. The MIC in the series on P. aeruginosa E411-17 [2] (Human serum 10%), with P. aeruginosa E411-17 [2] (NaCl (150 mM)) and in the series on P. aeruginosa E411-17 [2] (pH 6.21) was 2 µM throughout. Moreover, the “Antimicrobial activity (MIC) A. baumannii B28-16” value in the series on A. baumannii B28-16 (MHB, Table 8) amounted to 2 µM. Also, the “Antimicrobial activity (MIC)” value in the series with P. aeruginosa E411-17 [2] (Human serum 5%), with P. aeruginosa E411-17 [2] (pH 7.22) and with P. aeruginosa E411-17 [2] (pH 8.13) was 1 to 2 µM each time. The “Antimicrobial activity (MIC) P. aeruginosa E411-17” value in the series with P. aeruginosa E411-17 [2] (MHB, Table 8) lay in the range of 1 to 2 µM. Further, in the series on P. aeruginosa E411-17 [3], the time to kill is 30 min. Besides, the membrane permeabilization entry in the series on E. coli E423-17 [4] is “powerful membrane permeator”. Moreover, the hemolysis entry with human red blood cells (at 400 μM) is reported as “did not lyse human red blood cells even at 400 μM”.
In the case of “RIKDFLRNLV-NH2 (C-terminus assumed) [RIK-10]”, the “Antimicrobial activity (MIC)” value in the series with E. coli E423-17 [1] (E423-17) was 32 to 64 µM; in the series on E. coli E423-17 [1] (MHB 100%), 16 µM; with S. aureus USA300 LAC (MHB 12.5%), “active”; in the series on E. coli E423-17 [5] it was 8 µM.
In the case of RWKRFLRNWV-NH2 [RIK-10+], the MIC in the series on S. epidermidis 1457 is greater than 32 µM; in the series on S. aureus USA300 LAC (USA300, pH 6.21, read-out: Antimicrobial activity (MIC)), greater than 32 µM; in the series on S. aureus USA300 LAC (USA300, pH 7.22, read-out: Antimicrobial activity (MIC)) it was 16 µM; in the series on S. aureus USA300 LAC (USA300, pH 8.13, read-out: Antimicrobial activity (MIC)), 8 µM; in the series on S. aureus USA300 LAC (USA300, read-out: Antimicrobial activity (MIC)), greater than 32 µM; with S. aureus USA300 LAC (USA300, read-out: Antimicrobial activity (MIC) S. aureus USA300), 16 µM. The MIC is 8 µM in the series on P. aeruginosa E411-17 [2] (E411-17, pH 6.21); 4 µM in the series on P. aeruginosa E411-17 [2] (E411-17, pH 8.13); greater than 32 µM with P. aeruginosa E411-17 [2] (E411-17). For the same substance, in the series with E. coli E423-17 [1] (E423-17), the “Antimicrobial activity (MIC) E. coli E423-17” value stood at 4 µM. For the same substance, in the series with E. coli E423-17 [1] (E423-17), the “MIC E. coli E423-17” value fell in the range of 4 to 8 µM. The “MIC S. aureus USA300” value against S. aureus USA300 LAC (USA300) was in the range of 16 to 32 µM. Also, the “Antimicrobial activity (MIC) A. baumannii B28-16” value with A. baumannii B28-16 (B28-16) was determined as 8 µM. Further, in the series with P. aeruginosa E411-17 [2] (E411-17), the “Antimicrobial activity (MIC) P. aeruginosa E411-17” value was 4 µM. Also, the “Antimicrobial activity (MIC)” value in the series with P. aeruginosa E411-17 [2] (E411-17, pH 7.22) was in the range of 4 to 8 µM. The “MIC K. pneumoniae E406-17” value with K. pneumoniae E406-17 was 32 µM. Further, the CC50 at 24 h (in the series “Cytotoxicity assay (MTS)”; in series [6]) was 100 µM throughout. Also, the “MIC P. aeruginosa E416-17” value against P. aeruginosa E416-17 amounted to 4 µM. The “Hemolysis (HC10), 10% hemolytic concentration” value in the series with human red blood cells (red cells of human) was found to be 220 µM.

Values taken from patent US20250101062A1, “ANTIMICROBIAL PEPTIDES” (Board of Regents of the University of Nebraska, priority 2023, published 2025).
